2 molecules from US20240076347A1, “METHODS FOR PREVENTING FUNGAL INFECTIONS” (Cidara Therapeutics, Inc., priority 2016, published 2024) can be followed below.

The structures appear in SMILES notation. Converted amounts (≈) assume the structure as drawn. Where two headings read alike, the source gives them in different places. Numbered stars: 1 amine (or outer) side, 2 acyl side, 3 side chain; on linkers, the order of the positions; unused ones are H or OH. Bridge positions count the residues as written; N and C are the ends. Square brackets hold non-standard residues; d marks the D form. Peptide text beside a SMILES is read from it. * marks the point of attachment. pTerphenylCO(4''-OnC5H11) = CCCCCOc1ccc(-c2ccc(-c3ccc(C(=O)*)cc3)cc2)cc1; Orn(4R-OH,5R-OH) = O=C([C@H](C[C@@H](O)[C@@H](O)N[*:3])N[*:1])[*:2]; hTyr(3S-OH,4S-OH) = N[C@H](C(=O)O)[C@H](O)[C@@H](O)c1ccc(O)cc1; Pro(3S-OH,4S-Me) = C[C@H]1CN[C@H](C(=O)O)[C@H]1O; Hyp = O=C(O)[C@@H]1C[C@@H](O)CN1

Assay [1] concerns A. fumigatus (ATCC 13073). Briefly: Disseminated infection of immune competent DBA/2 mice, prophylaxis, survival. It is filed as in vivo, Aspergillus fumigatus. The note with it: 3 mg/kg IP 1 hour after infection. The procedure: A. fumigatus (ATCC 13073) growth was taken from 96 hour potato dextrose agar (PDA) and re-suspended in 0.1% Tween 20. The culture was resuspended in 1 mL cold PBS (>1.0×10^8 CFU/mL, OD620 2.3-2.8). The culture was then diluted in PBS to final cellular densities of 1.0×10^7 CFU/mL. The actual colony counts were determined by plating dilutions on PDA plates to confirm inoculation concentration. The actual inoculum count was 1.30×10^7 CFU/mL.
Groups of 6 immune competent female DBA/2 mice weighing 18±2 g were used. On Day 0, animals were inoculated (0.1 mL/mouse) by intravenous (IV) injection into the tail vein with A. fumigatus (ATCC 13073), 1.30×10^6 CFU per mouse. CD101 at 3, 10 and 30 mg/kg as prophylaxis was administered subcutaneously (SC) once starting 5, 3 or 1 day before inoculation. In addition, CD101 at 3 mg/kg SC and the reference, amphotericin B, at 3 mg/kg by intraperitoneal (IP) injection were administered one hour after infection (See Table 2).
A 50 percent or more (≥50%) increase in the survival rate compared to the vehicle control group indicates significant anti-infective activity. The health observations including body weight, hunched posture, ruffled fur, immobility and hypothermia were recorded daily for 14 days.

A further assay concerns Candida auris. The assay is described as follows: Murine model of disseminated candidiasis (immunosuppressed CD-1 mice), treatment. Format: in vivo. To be noted: 0.3 mg/kg IP, 2 doses; Day 14. As for the experimental part:
Female 6-8 week old CD-1 mice were immunosuppressed with cyclophosphamide (200 mg/kg) 3 days prior to infection and 150 mg/kg 1 day post-infection. On the day of infection, mice were inoculated with 3×10^7 C. auris blastospores via the lateral tail vein. Mice were randomized into 5 groups (n=5 for colony forming units (CFU) and n=10 for survival): CD101 20 mg/kg administered by intraperitoneal (IP) injection, fluconazole 20 mg/kg administered per os (PO), amphotericin B 0.3 mg/kg IP, and a vehicle control. Treatments were administered 2 hours post-infection (Day 1) and again on Day 4 of the study for a total of 2 doses. Mice were monitored daily and a survival curve was generated. CFU groups were sacrificed on Day 8 of the study. One kidney was removed from each mouse, homogenized, plated on potato dextrose agar (PDA), and incubated at 35° C. for 2 days to determine CFU. The remaining survival mice were monitored until the end of the study (Day 14).

Assay [2] deals with A. fumigatus (ATCC 13073). The assay is described as follows: Disseminated infection of neutropenic ICR mice, prophylaxis, survival. It is filed as in vivo, Aspergillus fumigatus. The note with it: 3 mg/kg IP 1 hr after infection. The procedure: Inoculum Preparation. A. fumigatus (ATCC 13073) growth was taken from 96 hr potato dextrose agar (PDA) and re-suspended in 0.1% Tween 20. The culture was resuspended in 1 mL cold PBS (>1.0×10^8 CFU/mL, OD620 2.3-2.8). The culture was then diluted in PBS to final cellular densities of 2.0×10^5 CFU/mL. The actual colony counts were determined by plating dilutions on PDA plates to confirm inoculation concentration. The actual inoculum count was 1.85×10^5 CFU/mL.
A. fumigatus (ATCC 13073) disseminated infection (IV). Groups of 6 female ICR mice weighing 22±2 g were used. Animals were immunosuppressed by three intraperitoneal (IP) injections of cyclophosphamide (the first at 6 mg/mouse 3 days before inoculation, the second and third at 2 mg/mouse on Day 1 then Day 4 after inoculation). On Day 0, animals were inoculated (0.1 mL/mouse) by intravenous (IV) injection into the tail vein with A. fumigatus (ATCC 13073), 1.85×10^4 CFU per mouse. CD101 at 5, 10 and 20 mg/kg as prophylaxis was administered subcutaneously (SC) once starting 5, 3 or 1 day before inoculation. […]
A 50 percent or more (≥50%) increase in the survival rate compared to the vehicle control group indicates significant anti-infective activity. The health observations including body weight, hunched posture, ruffled fur, immobility and hypothermia were recorded daily for 14 days. Animals found moribund were to be humanely sacrificed with CO2 asphyxiation in the study.

The next assay concerns C. glabrata. Briefly: In vitro susceptibility testing (CLSI M27-A3). It is filed as cell-based, Candida glabrata. The note with it: Nakaseomyces glabratus, 24 h. As for the experimental part:
(§1) Strains. Ten clinical Candida strains were used for the in vivo treatment studies, including four C. albicans, three C. glabrata, and three C. parapsilosis strains (Table 18). This group was selected to encompass phenotypic variability in susceptibility to triazoles and echinocandins and based on similar fitness in the animal model as defined by the amount of growth in control animals over 24 h. The organisms were maintained, grown, and quantified on Sabouraud's dextrose agar (SDA) plates.
(§2) In vitro susceptibility testing. All isolates were tested in accordance with the standards in CLSI document M27-A3. The MICs were determined visually after 24 h of incubation as the lowest concentration of drug that causes a significant diminution (≥50%) of growth compared to controls. MICs were determined on three separate occasions in duplicate.

Another assay concerns C. parapsilosis. The assay is described as follows: In vitro susceptibility testing (CLSI M27-A3). Format: cell-based, Candida parapsilosis. The note with it: Lodderomyces parapsilosis, 24 h. The procedure: as §1, §2
The next assay relates to C. albicans. Briefly: In vitro susceptibility testing (CLSI M27-A3). Format: cell-based. The note with it: Candida albicans, 24 h. As for the experimental part:
as §1, §2

As to `C[C@@H]1[C@H](O)[C@@H](C)/C=C/C=C/C=C/C=C/C=C/C=C/C=C/[C@H](O[C@@H]2O[C@H](C)[C@@H](O)[C@H](N)[C@@H]2O)C[C@@H]2O[C@](O)(C[C@@H](O)C[C@@H](O)[C@H](O)CC[C@@H](O)C[C@@H](O)CC(=O)O[C@H]1C)C[C@H](O)[C@H]2C(=O)O` [amphotericin B, reference compound], the 14-day survival entry in assay [1] and in assay [2] was “significant increase in the 14-day survival” in each case. For the same molecule, in the assay on Candida auris, the “percent survival at the end of the study” value turned out to be 30%.
Usually MIC stands for the lowest concentration found to suppress growth. On to `CCCCCOc1ccc(-c2ccc(-c3ccc(C(=O)N[C@H]4C[C@@H](O)[C@@H](O)NC(=O)[C@@H]5[C@@H](O)[C@@H](C)CN5C(=O)[C@H]([C@@H](C)O)NC(=O)[C@H]([C@H](O)[C@@H](O)c5ccc(O)cc5)NC(=O)[C@@H]5C[C@@H](O)CN5C(=O)[C@H]([C@@H](C)O)NC4=O)cc3)cc2)cc1` [Anidulafungin, anidulafungin, reference compound] ({pTerphenylCO(4''-OnC5H11)}-[Orn(4R-OH,5R-OH)]T[Hyp][hTyr(3S-OH,4S-OH)]T[Pro(3S-OH,4S-Me)]; lactam 1-C), for which the MIC was 0.06 µg/mL (≈ 0.0526 µM) in the assay on C. glabrata (strain 5592, read-out: MIC); 1 µg/mL (≈ 0.877 µM) against C. glabrata (strain 10956 (FKS2_HS1_F659V)); 0.25 µg/mL (≈ 0.219 µM) with C. glabrata (strain 35315, read-out: MIC); 1 µg/mL (≈ 0.877 µM) with C. parapsilosis (strain 20423.072); 2 µg/mL (≈ 1.75 µM) against C. parapsilosis (strain 20477.048); 4 µg/mL (≈ 3.51 µM) against C. parapsilosis (strain 20519.069). In addition, the MIC came to 0.03 µg/mL (≈ 0.0263 µM) with C. albicans (strain 98-17), 0.015 µg/mL (≈ 0.0132 µM) against C. albicans (strain 98-210), 0.015 µg/mL (≈ 0.0132 µM) against C. albicans (strain 580) and 0.015 µg/mL (≈ 0.0132 µM) against C. albicans (strain K-1).
